Measured values as given in PubChem BioAssay (NCI).
Several values for one entry are separate records, joined by “and”; a condition that tells them apart may be missing. Equal entries are not always repeated.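 Five concentrations, 48 hours, 96-well plates. GI50 = concentration required for 50% inhibition of growth. TGI: concentration producing complete growth inhibition.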

Columns and labels:
Experiment in all cases: NCI-60 cell line screen, 48 h
NCI-H522 lung = system: NCI-H522 lung
OVCAR-5 ovarian = system: OVCAR-5 ovarian
SNB-75 CNS = system: SNB-75 CNS
HCC-2998 colon = system: HCC-2998 colon
SK-OV-3 ovarian = system: SK-OV-3 ovarian
MDA-MB-231 breast = system: MDA-MB-231 breast
UACC-257 melanoma = system: UACC-257 melanoma
KM12 colon = system: KM12 colon
SF-295 CNS = system: SF-295 CNS
OVCAR-8 ovarian = system: OVCAR-8 ovarian

SMILES	GI50 (NCI-H522 lung) [µM]	TGI (NCI-H522 lung)	GI50 (OVCAR-5 ovarian) [µM]	TGI (OVCAR-5 ovarian)	GI50 (SNB-75 CNS) [µM]	TGI (SNB-75 CNS)	GI50 (HCC-2998 colon) [µM]	TGI (HCC-2998 colon)	GI50 (SK-OV-3 ovarian) [µM]	TGI (SK-OV-3 ovarian)	GI50 (MDA-MB-231 breast) [µM]	TGI (MDA-MB-231 breast) [µM]	GI50 (UACC-257 melanoma) [µM]	TGI (UACC-257 melanoma)	GI50 (KM12 colon) [µM]	TGI (KM12 colon)	GI50 (SF-295 CNS) [µM]	TGI (SF-295 CNS)	GI50 (OVCAR-8 ovarian)	TGI (OVCAR-8 ovarian)
COc1ccc(Cn2cc3c(c2-c2ccccc2)CCc2cncnc2-3)cc1	5.05	21 µM	18.4	37.7 µM	3.98	13.5 µM	11.9	25.5 µM	9.04	31.2 µM	5.12	18.3	4.03	16.7 µM	3.57	13.5 µM	4.02	17.8 µM	7.76 µM	23.7 µM
Cc1ccc(C(=O)Nc2ccccc2C(=O)N/N=C(\c2ccccc2)c2ccccn2)cc1	0.582	> 100 µM	0.607	> 100 µM	1.18	> 39.2 µM	0.381	> 100 µM	0.478	> 100 µM	0.517	> 100	0.999	> 100 µM	0.388	> 100 µM	0.377	> 100 µM	0.377 µM	> 100 µM
COc1ccc(-c2cc3nccn3c(Nc3ncccc3C(N)=O)n2)cc1OC	1.18	> 100 µM	> 100	> 100 µM	1.04	> 100 µM	> 100	> 100 µM	> 100	> 100 µM	> 100	> 100	> 100	> 100 µM	2.62	27.3 µM	> 100	> 100 µM	0.955 µM	> 100 µM
C=C(CN(CCN1CCOCC1)CC(=C)c1ccc(C(=O)Nc2ccccc2N)cc1)c1ccc(C(=O)Nc2ccccc2N)cc1	2.62	28.9 µM	7.62	15.2 µM	–	–	0.874	3.05 µM	8.26	17.2 µM	3.05	11.2	3.68	13.5 µM	9.12	19.5 µM	8.46	19.9 µM	1.79 µM	29.5 µM
CCOC(=O)c1cn2ncnc(Oc3ccc(NC(=O)NCCN(CC)CC)c(Cl)c3)c2c1C	2.3	5.92 µM	3.97	16.1 µM	3.14	31.5 µM	2.01	4.68 µM	20.7	50.2 µM	2.1	4.37	1.89	4.05 µM	10.8	49.5 µM	2.14	4.71 µM	5.66 µM	> 100 µM
COc1cccc2cc(N(C)c3nc(C)nc4ccsc34)ccc12	< 0.01	–	< 0.01	17.4 µM	< 0.01	5.3 µM	< 0.01	8.01 µM	< 0.01	35.8 µM	< 0.01	15	10.8	27 µM	< 0.01	11.4 µM	< 0.01	12.4 µM	< 0.01 µM	38.5 µM
CCCCCCCCCCC(CN(CC)CC)C(O)c1ccccc1 (centres undefined)	1.83	3.8 µM	1.78	3.49 µM	1.33	2.7 µM	1.81	3.39 µM	2.78	9.52 µM	1.72	3.43	2.64	5.78 µM	1.83	3.39 µM	1.84	3.48 µM	2.37 µM	5.83 µM
O=C(Nn1c2c(sc1=NC1CC1)C(=O)c1ccccc1C2=O)c1cc2ccc1CCc1ccc(cc1)CC2	1.6	4.69 µM	1.83	3.53 µM	1.32	6.04 µM	2.34	6.67 µM	7.03	21.4 µM	1.37	9.82	1.69	3.41 µM	3.12	13.7 µM	3.55	12.7 µM	2.62 µM	11.6 µM
COc1cc(C(=O)/C=C/c2c(-c3cccs3)nc3ccccn23)cc(OC)c1OC	1.1	2.38 µM	2.64	5.82 µM	2.68	10.2 µM	1.96	3.37 µM	3.01	8.35 µM	3.08	26.2	1.88	4.46 µM	1.32	2.79 µM	2.24	> 100 µM	1.68 µM	6.31 µM
CCCCc1oc2ccccc2c1C(=O)c1cc(I)c(OCCN(CC)CC)c(I)c1	1.79	3.48 µM and 12.3 µM	2.46	7.27 µM and 10.9 µM	1.92	10.9 µM and 22.9 µM	1.69	3.23 µM and 7.89 µM	2.69	6.41 µM and 20.1 µM	2	5.18	2.32	6.42 µM and 9.04 µM	1.84	3.61 µM and 12.3 µM	1.88	3.81 µM and 8.35 µM	3.37 µM and 11 µM	13.2 µM and 92.5 µM
c1ccc([P+](CCC[P+](c2ccccc2)(c2ccccc2)c2ccccc2)(c2ccccc2)c2ccccc2)cc1	3.53	> 100 µM and 24.8 µM	34	> 100 µM	4.56	86 µM and 67.6 µM	–	> 100 µM	69.1	> 100 µM	23	> 100	2.77	> 100 µM and 41.1 µM	3.86	> 100 µM	16.2	> 100 µM	10.5 µM	> 100 µM
Cc1[nH]ccc2cc3nc4ccccc4c3cc12	2.22	9.72 µM	3.35	11.9 µM	5.52	18.9 µM	2.85	13.3 µM	5.42	18.1 µM	2	8.24	3.35	12.8 µM	2.45	11.8 µM	1.96	6.79 µM	1.72 µM	11.7 µM
Oc1oc(-c2ccccc2)nc1/C=C1/C=NN=N1	–	–	–	> 100 µM	–	> 100 µM	–	> 100 µM	–	> 100 µM	–	> 100	–	> 100 µM	–	> 100 µM	–	> 100 µM	–	> 100 µM
CCN1CCN(c2cc(C)nc(NCc3cc(Nc4ccnc5cc(Cl)ccc45)ccc3F)n2)CC1	7.21	36 µM	1.67	17.7 µM	10.5	30.8 µM	2.59	31.3 µM	27.6	69.3 µM	2.02	5.99	2.17	4.33 µM	5.3	> 100 µM	2.05	5.96 µM	4.11 µM	> 100 µM
CCN1CCN(c2nc(C)cc(N(CCCNc3ccnc4cc(Cl)ccc34)Cc3ccco3)n2)CC1	3.12	12 µM	7.9	28.4 µM	1.7	7.55 µM	2.05	5.89 µM	7.82	30.7 µM	3.18	12.4	1.95	3.79 µM	5.07	19.4 µM	1.81	3.63 µM	4.08 µM	19.5 µM
Cc1sc2c(c1C)C(c1ccc(Cl)cc1)=N[C@@H](CC(=O)Nc1ccc(O)cc1)c1nnc(C)n1-2	0.262	16.1 µM	11.6	30.3 µM	0.0297	8.58 µM	2.48	21.8 µM	0.15	15 µM	0.18	21.7	0.632	26.9 µM	4.52	29.6 µM	2	22.4 µM	2.26 µM	40.6 µM
CC(C)c1ccc(O)c(O)c(=O)c1 (tested in a mixture with another compound)	–	17.5 µM	–	> 100 µM	–	22.8 µM	–	4.04 µM	–	> 100 µM	–	26.7	–	2.03 µM	–	> 82.1 µM	–	> 100 µM	–	> 100 µM
O=C1C(Cl)=C(Nc2ccc3c(c2NC2=C(Cl)C(=O)c4ccccc4C2=O)C(=O)c2ccccc2C3=O)C(=O)c2ccccc21	2.48	8.7 µM	2.06	4.4 µM	4.35	13.9 µM	3.26	10.7 µM	6.52	20.6 µM	1.67	7.87	1.88	3.95 µM	2.98	15 µM	1.38	3.2 µM	2.72 µM	9.6 µM
CC1(C)CC(O)CCCCCCOc2c(CN)cccc2NC(=O)c2nc(cnc2N)-c2ccc(cc2)S1(=O)=O (centres undefined)	1.22	2.96 µM	2.81	6.34 µM	0.223	1.74 µM	2.01	4.24 µM	2.22	15.8 µM	1.85	4.48	1.52	3.4 µM	0.843	2.59 µM	1.49	3.02 µM	2.14 µM	5.87 µM
Cc1cc(Cl)ccc1Nc1nc(C(F)(F)F)ccc1C(=O)N/N=C/c1ccc(N(C)C)cc1	3.07	> 100 µM	2.4	> 100 µM	1.83	> 100 µM	1.43	> 100 µM	2.19	> 100 µM	1.37	> 100	4.97	> 100 µM	3.4	> 100 µM	1.42	4.92 µM	2.83 µM	> 100 µM
O=C1c2c(O)cccc2C(C(=O)CCCC(=O)C2c3cccc(O)c3C(=O)c3c(O)cccc32)c2cccc(O)c21	–	–	–	1.18 µM	–	2.82 µM	–	3.4 µM	–	1.05 µM	–	0.329	–	0.893 µM	–	0.868 µM	–	2.22 µM	–	2.77 µM
C#CCOc1cccc(Nc2ncnc3c2ncn3C2CCN(C(=O)CCl)C2)c1 (centres undefined)	5.02	19.7 µM	16.8	31.6 µM	34.1	> 100 µM	18.2	37.3 µM	> 100	> 100 µM	18.6	35.9	26.3	79.2 µM	23.4	58.2 µM	> 100	> 100 µM	30.7 µM	> 100 µM
Cc1ccc2oc(=O)cc(C3c4ccc([nH]4)C(c4cc(=O)oc5ccc(C)cc45)c4ccc([nH]4)C(c4cc(=O)oc5ccc(C)cc45)c4ccc([nH]4)C(c4cc(=O)oc5ccc(C)cc45)c4ccc3[nH]4)c2c1 (centres undefined)	0.212	0.796 µM	0.106	2.71 µM	0.0256	1.61 µM	0.188	0.846 µM	0.0247	0.0687 µM	0.125	0.818	0.183	2.46 µM	–	–	0.027	0.284 µM	0.0338 µM	1.52 µM
c1cc(C2N3CCCN2CC3)ccn1 (centres undefined)	–	18.4 µM	–	> 100 µM	–	> 100 µM	–	> 100 µM	–	> 100 µM	–	> 100	–	> 100 µM	–	> 100 µM	–	> 100 µM	–	> 100 µM
ClC1=C(Cl)C(Cl)=C(Cl)C1=Cc1ccc(Cl)cc1Cl	–	–	1.33	4.01 µM	1.9	5.51 µM	0.341	1.14 µM	1.74	5.98 µM	0.29	1.15	–	–	0.686	2.08 µM	0.733	3.08 µM	–	–
Cc1cc(S(=O)(=O)Nc2nc3ccsc3c(=O)n2Cc2ccccc2)c(S)cc1Cl	37	> 100 µM	32.9	97.5 µM	> 100	> 100 µM	24	43.7 µM	–	–	30.3	72.5	47.8	> 100 µM	20.1	48.2 µM	26.8	98.7 µM	44.5 µM	> 100 µM
